Test results from patent US20060194947A1, “Peptide gap junction modulators” (priority 2002, published 2006).
Like-named read-outs stand apart in the source and are kept apart here. Where a SMILES comes first, the peptide text is derived from it. [ ]: non-standard residue; d: D form. The star is where a group is joined. Bz = O=C(c1ccccc1)*

Key:
[1] = Oral bioavailability, pharmacokinetic screening (i.v./p.o. cross-over, LC/MS/MS); assay type: in vivo; conditions: male, rat, plasma, Sprague-Dawley rats
Text: The water used for these experiments was of highest quality obtained from a reversed osmosis primary system in combination with a Milli-Q water secondary treatment system (Millipore, Bedford, Mass., USA). Methanol was super gradient quality obtained from Labscan Ltd. (Dublin, Ireland). Formic acid p.a. (98-100%) was obtained from Merck (Darmstadt, Germany). Heptafluorobuturicacid, HPLC grade wAs obtained from Pierce (Rockford, Ill., USA). EDTA stabilised plasma from rat (Sprague-Dawley) was obtained from Harlan Sera Lab Ltd. (Loughborough, UK). Blood samples were collected in potassium EDTA coated microtainers from BD Vacutainer Systems (Plymouth, UK). Sample preparation by ultra filtration was performed using Microcon centrifugal filter devices with a molecular weight cut off of 3000 obtained from Millipore (Bedford, Mass., USA).
The LC/MS/MS analysis was performed on a Waters Alliance 2790 HPLC instrument in combination with a Quattro Ultima mass spectrometer from Micromass (Manchester, UK). Both the LC and MS were controlled by MassLynx 3.5 software. The LC separations prior to MS/MS detection were performed on an XTerra MS C18 (2.0×50 mm), 3.5 μm particles, (Waters, Milford, Mass., USA).
Twelve male Sprague-Dawley rats (approx 350 g) were obtained from M&B (Denmark) and catheters were inserted into the femoral vein and artery during Hypnorm®-Dormicum® anaesthesia. After surgery, the rats were allowed to recover for five days before drug administration was initiated.
The dipeptides (Compound 22, Compound 21, Compound 23, Compound 96, Compound 95 and Compound 54) were obtained as the TFA salts and dissolved in PBS (2.6 mM KCl, 137 mM NaCl, 1.5 mM KH2PO4 and 8.2 mM Na2HPO4 adjusted to pH=7.4) to give concentrations of 500 μM. The dosing volumes were 1 mL/kg corresponding to doses of 500 nmol/kg, respectively. After each experiment the dosing solutions were diluted in 0.5% formic acid in water and analysed by LC/MS/MS for their content of drug substance. The concentrations of drug substance in the dosing solutions were calculated from the responses of standards in the range from 1 to 1000 nM.
The drug substances were administered to two animals as i.v. and p.o. bolus in a cross-over study design. The p.o. dose was administered to rats fasted for a 17 hours period prior to drug administration. The animals were allowed to rest for 48 hours in between drug administrations. After the first experiment the rats received a blood transfusion with heparin treated blood.
Prior to drug administration (5 min) the rats received 500 IU heparin as an i.v. bolus and a control blood sample was collected. After drug administration blood samples of approx. 250 μL were collected from the femoral artery at the following time points; before dose (B.D.), 5, 15, 30, 60, 120, 180 and 240 min after i.v. administration and at B.D., 10, 30, 50, 80, 120, 180, 240, and 300 min after p.o. administration. The blood samples were stored on ice until centrifugation for 5 min at 10.000×g (4° C.) and the plasma (100 μL) were transferred to 1.5 mL polypropylene tubes and stored at −20° C. until sample preparation and LC/MS/MS analysis.
The plasma samples were thawed on ice, and 100 μL plasma was mixed with 100 μL 1% (v/v) formic acid and transferred to microcon YM-3 filter units. The samples were then centrifuged for 1 hr at 8.300×g at room temperature. The filtrates were collected in 300 μL autosampler vials and stored at 4° C. until injection (40 μL) onto the LC column. The chromatography was performed at 50° C. using a linear gradient from 100% buffer A (0.1% formic acid in water) to 100% buffer B (0.1% formic acid in acetonitrile) in 4 min, followed by 3 min wash using buffer B and finally a reequilibration period for 7 min using buffer A. The detection of the drug substances were performed by MS/MS using argon as collision gas (1.3×10^−3 mbar). […]

[2] = tested on: calcium-induced arrhythmias (2nd degree AV block); assay: Standard calcium-induced arrhythmia assay; assay type: in vivo, Male NMRI mice; conditions: mice, i.v. 3 min before CaCl2 infusion; (tarr(testcompound)−tarr(vehicle))×100/tarr(vehicle)
Procedure: Peptides suitable for administration to cardiac cells can be identified in an in vivo model of calcium-induced arrhythmias according to the model of Lynch et al. (1981) J Cardiovasc. Pharmacol. 3: 49-60. Mice (25-30 g) are anaesthetized with a neurolept anaesthetic combination and an i.v. cannula is inserted into the tail vein. A lead II ECG signal is recorded continuously by positioning a stainless steel ECG electrodes on the right forelimb and on the left hind limb. The ground electrode is placed on the right hind limb. The signal is amplified (×5.000-10.000) and filtered (0.1-150 Hz) via a Hugo Sachs Electronic model 689 ECG module. The analog signal is digitized via a 12 bit data acquisition board (Data Translation model DT321) and sampled at 1000 Hz using the Notocord HEM 3.1 software for Windows NT. After a 10-minute equilibration period, the test sample of peptide is injected into the tail vein. Mice pre-treated with buffer are tested as a measure of the control level in untreated animals. The injection volume is 100 μl in all experiments.
Infusion of CaCl2 (30 mg/ml, 0.1 ml/min≈100 mg/kg/min (calcium chloride-2-hydrate, Riedel-de Haën, Germany)) is started 3 min after i.v. administration of drug or vehicle. The time lag to onset of 2nd degree AV-block is determined as the time from the start of CaCl2 infusion until the first arrhythmic event occurs. An event of 2nd degree AV-block is defined as intermittent failure of the AV conduction characterised by a P-wave without the concomitant QRS complex.
Responses are expressed relative to the time until 2nd degree AV-block occurred in vehicle treated mice. The maximal effect of compounds (e.g., peptides, AAP, AAP10 or controls) is determined. […] Preferably, […], the peptides provide at least about 40% of the activity of AAP, for example at least about 50% of the activity of AAP, such as about 60% of the activity of AAP, for example at least about 70% of the activity of AAP, such as at least about 80% of the activity of AAP, for example at least about 90% of the activity of AAP, for example at least about substantially the same activity of AAP, such as about 110% of the activity of AAP, for example at least about 120% of the activity of AAP, such as at least about 130% of the activity of AAP, for example at least about 140% of the activity of AAP, such as about 150% of the activity of AAP, for example at least about 160% of the activity of AAP, such as at least about 170% of the activity of AAP, for example at least about 180% of the activity of AAP, preferably at least about 190% of the activity of AAP, more preferably at least about 200 or greater % of the activity of AAP (i.e., the peptides show time lags of approximately the same duration as induced by AAP).
The anti-arrhythmic effect of the dipeptides was determined in a model of calcium-induced arrhythmias according to the model of Lynch et al.. Male NMRI mice (25-30 g; Bomholdtgaard, LI. Skendsved, Denmark) were anaesthetised with a neurolept anaesthetic combination (Hypnorm® (fentanyl citrate 0.315 mg/ml and fuanisone 10 mg/ml)+midazolam (5 mg/ml)). Commercial solutions of Hypnorm® and midazolam were diluted 1:1 in distilled water, and one part diluted Hypnorm® was mixed with one part diluted midazolam. Anaesthesia was induced by s.c. administration of this solution in a dose of 50-75 μl/10 gram mouse.
An i.v. cannula was inserted into the tail vein. The lead II ECG signal was recorded continuously by positioning of stainless steel ECG electrodes on the right forelimb and on the left hind limb. The ground electrode was placed on the right hind limb. The signal was amplified (×5.000-10.000) and filtered (0.1-150 Hz) via a Hugo Sachs Electronic model 689 ECG module. The analogue signal was digitised via a 12-bit data acquisition board (Data Translation model DT321) and sampled at 1000 Hz using the Notocord HEM 3.1 software for Windows NT. […]

[3] = tested on: Human primary osteoblasts; assay: Osteoblast activity (ALP assay); assay type: cell-based; conditions: cell lysate, stimulated 1×10^−13 to 1×10^−6 for the last 4 days, compared to vehicle treated control cultures
Procedure: Cells also can be measured for the presence of alkaline phosphatase activity to provide a general measure of osteoblast activity. In one aspect, cells are plated in 96-well plates at a concentration of 8000 cells/well (hOB) or 3000 cells/well (ROS) in 200 μl normal culture medium. On day 4 (or day 3 for ROS cells), cells are washed with 200 μl MEM, 0.1% BSA (Sigma, Cat.No. A-9418). Samples comprising a suitable medium (e.g., 200 μl MEM, 0.1% BSA) containing various concentrations of peptides, control, AAP or AAP10 are added to the cells, and culture is continued for about 4 days (2 days for ROS cells).
On about day 8 (preferably day 5 for ROS cells), cells are assayed for alkaline phosphatase using an Alkaline Phosphatase (ALP) assay such as is known in the art. ALP assays are generally colorimetric endpoint methods for measuring enzyme activity, and can be performed using an Alkaline Phosphatase Kit (Sigma, Cat.No. 104-LL). Preferably, cells are washed once with 200 μl PBS+Ca, Mg, 100 μl Alkaline Buffer Solution is added to each well and the cells are incubated at 37° C. for 10 minutes. 100 μl Substrate Solution is subsequently added to each well and the plate is incubated at 37° C. for 30 min. 100 μl 2.0 N NaOH is added to each well to stop the reaction. Absorbance is measured using a plate reader at 405 nm.
Human primary osteoblasts were obtained from bone marrow biopsies of the posterior iliac spine from voluntary donors. Cells were used at 6 weeks of culturing. Cells were cultured in 24-well plates in an 8 days process and stimulated with the test compounds in concentrations from 1×10^−13 to 1×10^−6 for the last 4 days of the experiment. Cell lysate was collected for determination of ALP activity. hOB cells from 10-15 donors were used for the experiments. For ALP measurements a commercially available kit (Alkaline Phosphatase Kit, Sigma-Aldrich Denmark A/S) was used. All determinations were performed according to the manufacturer's recommendations.
ALP was determined on cell lysate collected at termination of the experiment. Measurements were compared with and to vehicle treated control cultures.
Data are presented as means and standard deviations or medians and percentiles as appropriate. Two-way ANOVA is performed using Fisher's LSD test for post-hoc comparisons, using a 0.05 level of significance.

[4] = oral, TFA salts in PBS, 500 nmol/kg i.v. and p.o. bolus, p.o. fasted 17 hours, dose normalised AUCpo/AUCiv, read-out: F (%) Mean (mean bioavailability)
[5] = oral administration 500 nmol/kg, read-out: bioavailability

COc1ccc(C(=O)NCCCC[C@@H](N)C(=O)NCC(=O)O)cc1 [Compound 21, H-D-Lys(4-methoxybenzoyl)-Gly-OH]
bioavailability [1, 4]: 2.6% | bioavailability [1, 5]: 2 to 8% | % response (time lag to onset of 2nd degree AV block relative to vehicle) [2]: 55.0%

N[C@H](CCCCNC(=O)c1ccc([N+](=O)[O-])cc1)C(=O)NCC(=O)O [Compound 22, H-D-Lys(4-nitrobenzoyl)-Gly-OH]
ALP activity relative to vehicle control (ratio) [3]: 1.12 | bioavailability [1, 4]: 31% | bioavailability [1, 5]: 10 to 31% | % response (time lag to onset of 2nd degree AV block relative to vehicle) [2]: 52.0%

N[C@H](CCCCNC(=O)c1ccccc1)C(=O)NCC(=O)O [Compound 23, H-D-Lys(benzoyl)-Gly-OH] (H-[dK](Bz)-Gly-OH)
ALP activity relative to vehicle control (ratio) [3]: 1.08 | bioavailability [1, 4]: 10% | bioavailability [1, 5]: 10 to 31% | % response (time lag to onset of 2nd degree AV block relative to vehicle) [2]: −8.0%

CC(C)(C)c1ccc(C(=O)NCCCC[C@@H](N)C(=O)NCC(=O)O)cc1 [Compound 54, H-D-Lys(4-t-butylbenzoyl)-Gly-OH]
bioavailability [1, 4]: 7.2% | bioavailability [1, 5]: 2 to 8% | % response (time lag to onset of 2nd degree AV block relative to vehicle) [2]: 61.3%

COc1ccc(CNC(=O)C[C@@H](N)C(=O)N[C@@H](C)C(=O)O)cc1 [Compound 95, H-D-Asn(NH(4-methoxybenzyl))-Ala-OH]
ALP activity relative to vehicle control (ratio) [3]: 1.14 | bioavailability [1, 4]: 29% | bioavailability [1, 5]: 10 to 31% | % response (time lag to onset of 2nd degree AV block relative to vehicle) [2]: 0.3%

C[C@H](NC(=O)[C@H](N)CC(=O)NCc1ccc([N+](=O)[O-])cc1)C(=O)O [Compound 96, H-D-Asn(NH(4-nitrobenzyl))-Ala-OH]
bioavailability [1, 4]: 15% | bioavailability [1, 5]: 10 to 31% | % response (time lag to onset of 2nd degree AV block relative to vehicle) [2]: 54%

H-Asn(NH(4-methoxybenzyl))-D-Ala-OH [Compound 80]
% response (time lag to onset of 2nd degree AV block relative to vehicle) [2]: 33%

H-Gly-Lys(4-cyanobenzoyl)-OH [Compound 3]
% response (time lag to onset of 2nd degree AV block relative to vehicle) [2]: 37.0%

H-Gly-Lys(4-methoxybenzoyl)-OH [Compound 4]
% response (time lag to onset of 2nd degree AV block relative to vehicle) [2]: 69.0%

H-Gly-Lys(4-nitrobenzoyl)-OH [Compound 1]
ALP activity relative to vehicle control (ratio) [3]: 1.08 | % response (time lag to onset of 2nd degree AV block relative to vehicle) [2]: 52.0%

H-Lys(4-nitrobenzoyl)-Gly-OH [Compound 7]
% response (time lag to onset of 2nd degree AV block relative to vehicle) [2]: 40%
